A value given as a limit tells only on which side of the number the result lay.

Results on 58 compounds are retold here after patent publication US10894782B2, “Modulators of P97 AAA ATPase activity” (University of Pittsburgh—Of the Commonwealth System of …, priority 2016, dated 2021).

The target in one assay is P97 (Homo sapiens (Human), UniProt P55072). Put plainly: P97 Biomolgreen ATPase assay, 200 μM ATP. It counts as biochemical.
Chain of P97 (P55072 whole entry): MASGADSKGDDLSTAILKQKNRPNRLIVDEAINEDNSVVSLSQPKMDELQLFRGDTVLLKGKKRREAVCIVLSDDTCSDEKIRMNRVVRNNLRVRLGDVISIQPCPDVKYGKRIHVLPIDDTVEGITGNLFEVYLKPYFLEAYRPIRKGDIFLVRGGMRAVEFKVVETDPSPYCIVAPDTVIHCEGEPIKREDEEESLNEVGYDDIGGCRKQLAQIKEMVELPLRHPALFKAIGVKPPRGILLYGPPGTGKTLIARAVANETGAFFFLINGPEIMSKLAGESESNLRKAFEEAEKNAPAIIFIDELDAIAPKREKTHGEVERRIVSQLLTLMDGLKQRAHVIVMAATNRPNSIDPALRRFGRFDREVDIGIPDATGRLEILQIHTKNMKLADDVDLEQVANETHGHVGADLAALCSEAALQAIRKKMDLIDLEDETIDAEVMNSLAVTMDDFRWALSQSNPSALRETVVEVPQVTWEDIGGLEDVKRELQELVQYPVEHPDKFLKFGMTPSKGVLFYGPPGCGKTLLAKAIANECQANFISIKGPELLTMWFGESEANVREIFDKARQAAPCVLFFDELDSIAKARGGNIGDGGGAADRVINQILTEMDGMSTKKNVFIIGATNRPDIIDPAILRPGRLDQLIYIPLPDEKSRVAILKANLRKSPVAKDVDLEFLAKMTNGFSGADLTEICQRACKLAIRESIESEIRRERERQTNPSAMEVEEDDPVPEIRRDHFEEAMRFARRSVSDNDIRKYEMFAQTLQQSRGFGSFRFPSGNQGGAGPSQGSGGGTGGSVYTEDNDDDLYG
Settings: not given
On to `CCC(=O)NCC#Cc1ccc(OCc2nnc(SC[C@@]3(C)CO3)n2-c2cccnc2)cc1C` [Compound 130], for which the “P97 Biomolgreen; 200 μM ATP; IC50 (μM)” value is “not active”.

The assay is the same for the next values; noted with them: P97 Biomolgreen, IC50 (μM).
In turn, `[2H]C1([2H])C([2H])([2H])C([2H])([2H])C([2H])(Sc2nnc(COc3ccc(C#CCOC(=O)N4CCOCC4)c(C)c3)n2-c2cccnc2)C1([2H])[2H]` [Compound 6] had an IC50 of 0.044 µM.

Compound `[2H]C1([2H])C([2H])([2H])C([2H])([2H])C([2H])(Sc2nnc(COc3ccc(C#CC(C)O)c(C)c3)n2-c2cccnc2)C1([2H])[2H]` (stereo not shown) [Compound 26] displayed an IC50 of 0.068 µM.

For the compound `[2H]C1([2H])C([2H])([2H])C([2H])([2H])C([2H])(Sc2nnc(COc3ccc(C#CCNCC4(N5CCN(C(C)C)CC5)CCC4)c(C)c3)n2-c2cccnc2)C1([2H])[2H]` [Compound 67], the IC50 was found to be 0.2 µM.

`[2H]C1([2H])C([2H])([2H])C([2H])([2H])C([2H])(Sc2nnc(COc3ccc(C#CCO)c(F)c3)n2-c2cccnc2)C1([2H])[2H]` [Compound 105] displayed an IC50 of 0.03 µM.

As for `[2H]C1([2H])C([2H])([2H])C([2H])([2H])C([2H])(Sc2nnc(COc3ccc(C#CCOC(=O)OCC#Cc4ccc(OCc5nnc(SC6([2H])C([2H])([2H])C([2H])([2H])C([2H])([2H])C6([2H])[2H])n5-c5cccnc5)cc4C)c(C)c3)n2-c2cccnc2)C1([2H])[2H]` [Compound 133], the IC50 amounted to 0.91 µM.

As for `[2H]C1([2H])C([2H])([2H])C([2H])([2H])C([2H])(Sc2nnc(COc3ccc(C#CCN4CCS(=O)(=O)CC4)c(C)c3)n2-c2cccnc2)C1([2H])[2H]` [Compound 41], the midpoint of inhibition, the IC50, lay at 0.16 µM.

`[2H]C1([2H])C([2H])([2H])C([2H])([2H])C([2H])(Sc2nnc(COc3ccc(C#CCOC(=O)NC)c(C)c3)n2-c2cccnc2)C1([2H])[2H]` [Compound 24] showed an IC50 of 0.026 µM.

Regarding `[2H]C1([2H])C([2H])([2H])C([2H])([2H])C([2H])(Sc2nnc(COc3ccc(C#CCOC(=O)NCCN4CCN(C(C)C)CC4)c(C)c3)n2-c2cccnc2)C1([2H])[2H]` [Compound 21], the half-maximal inhibitory concentration (IC50) is 0.034 µM.

Compound `[2H]C1([2H])C([2H])([2H])C([2H])([2H])C([2H])(Sc2nnc(COc3ccc(C#CCNC(=O)OC(C)(C)C)c(C)c3)n2-c2cccnc2)C1([2H])[2H]` [Compound 46] yielded an IC50 of 0.19 µM.

In turn, `[2H]C1([2H])C([2H])([2H])C([2H])([2H])C([2H])(Sc2nnc(COc3ccc(C#CCOC(=O)N4CCC4)c(C)c3)n2-c2cccnc2)C1([2H])[2H]` [Compound 37] displayed a half-maximal inhibitory concentration (IC50) of 0.07 µM.

On to `[2H]C1([2H])C([2H])([2H])C([2H])([2H])C([2H])(Sc2nnc(COc3ccc(C#CCOC)c(C)c3)n2-c2cccnc2)C1([2H])[2H]` [Compound 36], for which the IC50 was determined as 0.069 µM.

For the compound `[2H]C1([2H])C([2H])([2H])C([2H])([2H])C([2H])(Sc2nnc(COc3ccc(C#CC(C)OC(=O)NC(C)C)c(C)c3)n2-c2cccnc2)C1([2H])[2H]` (stereo not shown) [Compound 1], the IC50 came out at 0.16 µM.

On to `[2H]C1([2H])C([2H])([2H])C([2H])([2H])C([2H])(Sc2nnc(COc3cc(F)c(C#CCO)cc3F)n2-c2cccnc2)C1([2H])[2H]` [Compound 123], for which inhibition was half-maximal at 0.021 µM (IC50).

The compound `[2H]C1([2H])C([2H])([2H])C([2H])([2H])C([2H])(Sc2nnc(COc3ccc(C#CCOC(=O)NC4CCN(C)CC4)c(C)c3)n2-c2cccnc2)C1([2H])[2H]` [Compound 125] returned an IC50 of 0.016 µM.

As to `[2H]C1([2H])C([2H])([2H])C([2H])([2H])C([2H])(Sc2nnc(COc3ccc(C#CC(C)OC)c(C)c3)n2-c2cccnc2)C1([2H])[2H]` (stereo not shown) [Compound 27], the IC50 is 0.16 µM.

Compound `[2H]C1([2H])C([2H])([2H])C([2H])([2H])C([2H])(Sc2nnc(COc3cc(F)c(C#CCOC(=O)NC4CCN(C)CC4)cc3F)n2-c2cccnc2)C1([2H])[2H]` [Compound 124] came in with a half-inhibitory concentration (IC50) of 0.01 µM.

Compound `[2H]C1([2H])C([2H])([2H])C([2H])([2H])C([2H])(Sc2nnc(COc3ccc(C#CCNC4CCN(C(C)C)CC4)c(C)c3)n2-c2cccnc2)C1([2H])[2H]` [Compound 38] came in with a half-maximal inhibitory concentration (IC50) of 0.095 µM.

Still in this assay, the particulars now being: read-out: P97 Biomolgreen, IC50.
With `N#Cc1ccc(C#CCOCc2nnc(SC3CCCC3)n2-c2cccnc2)cc1` [Compound 56], the IC50 was greater than 6.7 µM.

Regarding `Cc1cc(OCc2nnc(SCC3CC3)n2-c2cccnc2)ccc1C#CCO` [Compound 128], the IC50 came to 0.13 µM.

With `Cc1cc(OCc2nnc(SC3C=CCCC3)n2-c2cccnc2)ccc1C#CCNS(=O)(=O)c1ccc(F)cc1` (stereo not shown) [Compound 15], the IC50 came to 0.074 µM.

For `Cc1cc(OCc2nnc(SC3CCCC3)n2-c2cccnc2)ccc1C#CCNS(C)(=O)=O` [Compound 13], the IC50 worked out at 0.05 µM.

As for `CN1CCC(NC(=O)OCC#Cc2ccc(OCc3nnc(SC4C=CCCC4)n3-c3cccnc3)c(F)c2F)CC1` (stereo not shown) [Compound 118], the IC50 turned out to be 0.017 µM.

`Cc1cc(OCc2nnc(SC3CCCC3)n2-c2cccnc2)ccc1C#CCOC(=O)NCCOCCNC(=O)CC1[C@H]2C[C@@H]3C[C@@H](C[C@H]1C3)C2` (stereo partly shown) [Compound 111]: the IC50 was 0.03 µM.

On to `Cc1cc(OCc2nnc(SC3C=CCCC3)n2-c2cccnc2)ccc1C#CCNC(=O)C1CC1` (stereo not shown) [Compound 103], for which the IC50 is 0.03 µM.

As to `Cc1cc(OCc2nnc(SC3C=CCCC3)n2-c2cccnc2)ccc1C#CCNCc1ccc(F)cc1` (stereo not shown) [Compound 39], the IC50 was determined as 0.11 µM.

`COc1cc(C#CCOC(=O)NC2CCN(C)CC2)c(F)cc1OCc1nnc(SC2C=CCCC2)n1-c1cccnc1` (stereo not shown) [Compound 122]: the IC50 was found to be 0.019 µM.

Take `Cc1cc(OCc2nnc(S(=O)(=O)C3C=CCCC3)n2-c2cccnc2)ccc1C#CCO` (stereo not shown) [Compound 98]: the IC50 was determined as 4.82 µM.

Regarding `Cc1cc(OCc2nnc(SC3C=CCCC3)n2-c2cccnc2)ccc1C#CCN1C(=O)c2ccccc2C1=O` (stereo not shown) [Compound 47], the IC50 was found to be 0.29 µM.

For `Cc1cc(OCc2nnc(SC3CCCC3)n2-c2cccnc2)ccc1C#CCO` [Compound 89], the IC50 was 0.028 µM.

Regarding `C#Cc1ccc(OCc2nnc(CC3CCCC3)n2-c2cccnc2)cc1C` [Compound 51], the IC50 amounted to 0.44 µM.

As for `Cc1cc(OCc2nnc(SC3C=CCCC3)n2-c2cccnc2)ccc1C#CCOC(=O)N1CCN(C(C)C)CC1` (stereo not shown) [Compound 101], the IC50 came out at 0.03 µM.

With `C/C=C/C(=O)NCC#Cc1ccc(OCc2nnc(SC3C=CCCC3)n2-c2cccnc2)cc1C` (stereo not shown) [Compound 87], the IC50 was 0.058 µM.

For the compound `C=C(C)C(=O)NCC#Cc1ccc(OCc2nnc(SC3C=CCCC3)n2-c2cccnc2)cc1C` (stereo not shown) [Compound 86], the IC50 was determined as 0.06 µM.

`Cc1cc(OCc2nnc(SC3C=CCCC3)n2-c2cncc(Cl)c2)ccc1C#CCOC(=O)NCCN1CCN(C)CC1` (stereo not shown) [Compound 85]: the IC50 came to 0.934 µM.

Regarding `Cc1cc(OCc2nnc(SC3C=CCCC3)n2-c2cccnc2)ccc1C#CCNC(=O)OC(C)(C)C` (stereo not shown) [Compound 40], the IC50 is 0.14 µM.

In the case of `Cc1cc(OCc2nnc(SC3CCCC3)n2-c2cccnc2)ccc1C#CCN1CCS(=O)(=O)CC1` [Compound 44], the IC50 is 0.18 µM.

For the compound `Cc1cc(OCc2nnc(CC3CCCC3)n2-c2cccnc2)ccc1C#CCOC(=O)NCCC(=O)N1CCN(C)CC1` [Compound 70], the IC50 amounted to 0.098 µM.

For `Cc1cc(OCc2nnc(SC3C=CCCC3)n2-c2cccnc2)ccc1C#CCO` (stereo not shown) [Compound 79], the IC50 amounted to 0.037 µM.

Regarding `Cc1cc(OCc2nnc(SC3C=CCCC3)n2-c2cccnc2)ccc1C#CCNC(=O)NCC#Cc1ccc(OCc2nnc(SC3C=CCCC3)n2-c2cccnc2)cc1C` (stereo not shown) [Compound 134], the IC50 stood at 0.25 µM.

Consider `CC(=O)NCC#Cc1ccc(OCc2nnc(SC3C=CCCC3)n2-c2cccnc2)cc1C` (stereo not shown) [Compound 83], for which the IC50 worked out at 0.046 µM.

In the case of `C=CC(=O)NCC#Cc1ccc(OCc2nnc(SC3C=CCCC3)n2-c2cccnc2)cc1C` (stereo not shown) [Compound 92], the IC50 stood at 0.026 µM.

Regarding `Cc1cc(OCc2nnc(SC3C=CCCC3)n2-c2cccnc2)ccc1C#CCN` (stereo not shown) [Compound 4], the IC50 was found to be 0.044 µM.

Turning to `Cc1cc(OCc2nnc(SC3C=CCCC3)n2-c2cccnc2)ccc1C#CC1(NC(=O)OC(C)(C)C)CCCCC1` (stereo not shown) [Compound 53], the IC50 was 1.1 µM.

Turning to `Cc1cc(OCc2nnc(SC3CCCC3)n2-c2cccnc2)ccc1C#CCO` [Compound 58], the IC50 amounted to 0.093 µM.

Consider `Cc1cc(OCc2nnc(SC3CCCC=C3F)n2-c2cccnc2)ccc1C#CCOC(=O)NCCN1CCN(C(C)C)CC1` (stereo not shown) [Compound 81], for which the IC50 was determined as 0.16 µM.

On to `Cc1cc(OCc2nnc(SC3CCCC3)n2-c2cccnc2)ccc1C#CCNC(C)C` [Compound 11], for which the IC50 worked out at 0.007 µM.

With `Cc1cc(OCc2nnc(SC3C=CCCC3)n2-c2cccnc2)ccc1C#CCOC(=O)NCCN1CCN(C(C)C)CC1` (stereo not shown) [Compound 29], the IC50 came out at 0.019 µM.

`Cc1cc(C(=O)NCC#Cc2ccc(OCc3nnc(SC4C=CCCC4)n3-c3cccnc3)cc2C)no1` (stereo not shown) [Compound 104]: the IC50 is 0.05 µM.

On to `Cc1cc(OCc2nnc(SC3C=CCCC3)n2-c2cncc(Cl)c2)ccc1C#CCO` (stereo not shown) [Compound 84], for which the IC50 came to 2.11 µM.

For `N#Cc1cc(OCc2nnc(SC3C=CCCC3)n2-c2cccnc2)ccc1C#CCO` (stereo not shown) [Compound 115], the IC50 worked out at 0.1 µM.

Turning to `Cc1cc(OCc2nnc(SC3CCCC3)n2-c2cccnc2)ccc1C#CCCc1ccccc1` [Compound 9], the IC50 is 0.1 µM.

For `Cc1cc(OCc2nnc(SC3C=CCCC3)n2-c2cccnc2)ccc1C#CCOC(=O)N1CCN(C)CC1` (stereo not shown) [Compound 76], the IC50 came to 0.03 µM.

As for `Cc1cc(OCc2nnc(SC3C=CCCC3)n2-c2cccnc2)ccc1C#CC(C)(C)O` (stereo not shown) [Compound 28], the IC50 stood at 0.096 µM.

As for `Cc1cc(OCc2nnc(SC3C=CCCC3)n2-c2cccnc2)ccc1C#CCOC(=O)NCC1(N2CCN(C(C)C)CC2)CCC1` (stereo not shown) [Compound 30], the 50% inhibitory concentration (IC50) was found to be 0.011 µM.

Turning to `Cc1cc(OCc2nnc(SC3C=CCCC3)n2-c2cccnc2)ccc1C#CCNS(=O)(=O)N(C)C` (stereo not shown) [Compound 33], the IC50 worked out at 0.043 µM.

As to `Cc1cc(OCc2nnc(SC3CCCC3)n2-c2cccnc2)ccc1C#CCN1C(=O)c2ccccc2C1=O` [Compound 50], the IC50 was determined as 0.28 µM.

Take `Cc1cc(OCc2nnc(SC3C=CCCC3)n2-c2cccnc2)ccc1C#CCNS(=O)(=O)C1CC1` (stereo not shown) [Compound 18]: the IC50 turned out to be 0.035 µM.
